Results published in patent US20130281544A1, “HEPATOPROTECTANT ACTIVITY OF GARCINOL” (priority 2010, published 2013).
Marks after values point to notes of the source that are not given here.

Test system: alcohol (Ethyl alcohol) induced hepatotoxic animal models
Test: Serum ALT, AST, ALP and bilirubin in alcohol (ethyl alcohol) induced hepatotoxic animal models
Assay type: in vivo, Male Wistar Rats
Settings: EtOH; for ALP percent change / ALT percent change / AST percent change / Bilirubin percent change / ALP / ALT / AST / Bilirubin: serum; for ALP / ALT / AST / Bilirubin: Mean ± SE
Protocol: Doses of Garcinol (GC) used for the study: 1.25, 2.5, 5, 10 mg/kg p.o.
Standard drug: Silymarin (50 mg/kg) p.o.
Male Wistar rats, weighing 180-200 g, were given 0.5-0.6 ml ethanol orally. […] All rats had regular standard rat chow available throughout the 6-week period. Rats were weighted three times per week. [Guangjin Yuan, Zuojiong Gong *, Xiaorong Zhou, Pin Zhang, Xiaomei Sun and Xi Li. Epigallocatechin-3-Gallate Ameliorates Alcohol-Induced Liver Injury in Rats. Int. J. Mol. Sci. 2006, 7, 204-219]. Blood was collected from the retro-orbital plexus of experimental animals and no anti-coagulant was added. Blood was made to stand at room temperature for 1 hour. It was then centrifuged and clear serum was separated. The serum was then stored for analysis. Reference: (Magari et al., 2004).
(ASPARTATE AMINOTRANSFERASE and ALANINA AMINOTRANSFERASE), Reference: Ritman S, Frankel S, (1957). A colorimetric method for the determination of serum glutamic oxaloacetic and glutamic pyruvic transaminases. American Journal of Clinical Pathology; 28: 56-63.
0.2 ml of serum, collected from test and control samples, was mixed with 1.0 ml of buffer solution and incubated for 60 min at 37° C. in a water bath. After the addition of 1.0 ml of chromogen solution, the samples were kept at room temperature for 20 minutes for the reaction to proceed and 10 ml NaOH was added. The optical density was red at 546 nm after 5 min. To the blank, serum was added after the addition of chromogen solution.
(ALKALINE PHOSPHATASE), Reference: Klaus Walter and Schutt C. (1974). Acid and alkaline phosphatase in serum. In: Methods of Enzymatic Analysis. Eds. Hans Ulrich Bergmeyer, Verlag ChemieWeinheim, Academic press, Inc. New York, 2nd Edition, Vol. 2, pp. 855-64.
Alkaline phosphatase activity measurement is based on the ability of the enzyme to hydrolyze p-nitrophenol phosphate under alkaline conditions. The cleaved product p-nitrophenol is yellow in alkaline solution and is measured at 400-420 nm (Klaus and Schutt, 1974). 2.0 ml of buffered substrate was taken in the tubes ‘Test’ ‘Control’ and ‘Blank’ followed by addition of serum and distilled water (0.1 ml) in ‘Test’ and ‘Blank’ respectively and incubated in a water bath for 30 minutes at 25° C. After incubation sodium hydroxide was added (0.25 N, 2 ml) to all the tubes, which was followed by serum (0.1 ml) to the tubes marked ‘Control’. The yellow colour formed was measured spectrophotometrically against blank at 410 nm.
[BILIRUBIN (BRBN)], Reference: Malloy H T and Evelyn K A (1937). The determination of bilirubin with photoelectric colorimeter. Journal of Biological Chemistry 119: 481-490.
Serum bilirubin was estimated by the method of Malloy and Evelyn (1937). In the two sets of test tubes marked ‘Test’ and ‘Control’, serum (0.2 ml) and distilled water (1.8 ml) were added. To the tubes marked ‘Test’ and ‘Standard’ diazo reagent (0.5 ml) was added. To the test tubes marked ‘Control’ and ‘Blank’ diazo blank (0.5 ml) was added. Finally methanol (2.5 ml) was added into each test tube. The tubes were mixed and allowed to stand for 30 minutes in dark. The tubes were read after 10 minutes at 540 nm.

In the case of `C=C(C)[C@@H](CC=C(C)C)C[C@@]12C[C@@H](CC=C(C)C)C(C)(C)[C@@](CC=C(C)C)(C(=O)C(C(=O)c3ccc(O)c(O)c3)=C1O)C2=O` [Garcinol], the “Average Protection” value (1.25 mg/kg p.o.) is reported as 17.32%, the “Average Protection” value (2.50 mg/kg p.o.) is reported as 29.82% and the “Average Protection” value (5.00 mg/kg p.o.) is reported as 39.39%. For the same molecule, the “Average Protection” value (10.00 mg/kg p.o.) was 40.20%, the ALP percent change (1.25 mg/kg p.o.) was “(14.91) %” and the ALT percent change (1.25 mg/kg p.o.) was “(27.45) %”. The AST percent change (1.25 mg/kg p.o.) was “(20.20) %”, the Bilirubin percent change (1.25 mg/kg p.o.) was “(6.73) %” and the ALP (1.25 mg/kg p.o.) was 88.68 ± 8.58 μmol min/lt. For the same molecule, the ALT (1.25 mg/kg p.o.) was 1320.40 ± 52.20* μmol min/lt, the AST (1.25 mg/kg p.o.) was 858.80 ± 32.64 μmol min/lt and the Bilirubin (1.25 mg/kg p.o.) was 1.94 ± 0.02 mg %. For the same molecule, the ALP percent change (2.50 mg/kg p.o.) was “(26.96) %”, the ALT percent change (2.50 mg/kg p.o.) was “(40.63) %” and the AST percent change (2.50 mg/kg p.o.) was “(32.47) %”. For the same molecule, the Bilirubin percent change (2.50 mg/kg p.o.) was “(19.23) %”, the ALP (2.50 mg/kg p.o.) was 76.12 ± 4.88* μmol min/lt and the ALT (2.50 mg/kg p.o.) was 1080.50 ± 48.56** μmol min/lt. The AST (2.50 mg/kg p.o.) was 726.78 ± 46.50* μmol min/lt, the Bilirubin (2.50 mg/kg p.o.) was 1.68 ± 0.04* mg % and the ALP percent change (5.00 mg/kg p.o.) was “(34.44) %”. For the same molecule, the ALT percent change (5.00 mg/kg p.o.) was “(51.83) %”, the AST percent change (5.00 mg/kg p.o.) was “(39.58) %” and the Bilirubin percent change (5.00 mg/kg p.o.) was “(31.73) %”. For the same molecule, the ALP (5.00 mg/kg p.o.) was 68.32 ± 5.60** μmol min/lt, the ALT (5.00 mg/kg p.o.) was 876.58 ± 76.80** μmol min/lt and the AST (5.00 mg/kg p.o.) was 650.26 ± 56.20** μmol min/lt. For the same molecule, the Bilirubin (5.00 mg/kg p.o.) was 1.42 ± 0.06** mg %, the ALP percent change (10.00 mg/kg p.o.) was “(33.79) %” and the ALT percent change (10.00 mg/kg p.o.) was “(52.15) %”. For the same molecule, the AST percent change (10.00 mg/kg p.o.) was “(41.23) %”, the Bilirubin percent change (10.00 mg/kg p.o.) was “(33.65) %” and the ALP (10.00 mg/kg p.o.) was 69.00 ± 4.82** μmol min/lt. For the same molecule, the ALT (10.00 mg/kg p.o.) was 870.80 ± 48.40** μmol min/lt, the AST (10.00 mg/kg p.o.) was 632.48 ± 44.56** μmol min/lt and the Bilirubin (10.00 mg/kg p.o.) was 1.39 ± 0.04** mg %.
